Results as given in patent EP1171440B1, “SUBSTITUTED-3-CYANO-[1.7],[1.5], AND [1.8]-NAPHTHYRIDINE INHIBITORS OF TYROSINE KINASES” (Wyeth Holdings Corporation, priority 1999, dated 2000).
Values after ≈ are worked out from the molar mass of the structure shown. Like-named read-outs stand apart in the source and are kept apart here.

How the values were obtained:
[1] = target: T1, EGF-R Kinase (recombinant enzyme) (Homo sapiens, UniProt P00533); test: Inhibition of Epidermal Growth Factor Receptor Kinase (EGF-R) using recombinant enzyme, RR-SRC peptide phosphorylation with 33P-ATP; format: biochemical
T1 construct: containing the EGFR cDNA encoding amino acids 645 - 1186 preceded by Met-Ala-(His)6; made in house; host or cells: Sf9 insect cells infected with recombinant baculovirus vHcEGFR52
Experimental: Representative test compounds were evaluated for their ability to inhibit the phosphorylation of the tyrosine residue of a peptide substrate catalyzed by the enzyme epidermal growth factor receptor kinase. […] The enzyme used in this assay is the His-tagged cytoplasmic domain of EGFR. A recombinant baculovirus (vHcEGFR52) was constructed containing the EGFR cDNA encoding amino acids 645 - 1186 preceded by Met-Ala-(His)6 . Sf9 cells in 100 mm plates were infected at an moi of 10 pfu/cell and cells were harvested 48 h post infection. A cytoplasmic extract was prepared using 1% Triton X-100 and applied to Ni-NTA column. After washing the column with 20 mM imidazole, HcEGFR was eluted with 250 mM imidazole (in 50 mM Na2HPO4, pH 8.0, 300 mM NaCl). Fractions collected were dialyzed against 10 mM HEPES, pH 7.0, 50 mM NaCl, 10% glycerol, 1ug/mL antipain and leupeptin and 0.1 mM Pefabloc SC. The protein was frozen in dry ice/methanol and stored -70° C.
Test compounds were made into 10 mg/mL stock solutions in 100% dimethylsulfoxide (DMSO). Prior to experiment, stock solutions were diluted to 500 uM with 100% DMSO and then serially diluted to the desired concentration with HEPES buffer (30 mM HEPES pH 7.4).
For the enzyme reaction, 10 uL of each inhibitor (at various concentrations) were added to each well of a 96-well plate. To this was added 3 uL of enzyme (1:10 dilution in 10mM HEPES, pH 7.4 for final conc. of 1:120). This was allowed to sit for 10 min on ice and was followed by the addition of 5 ul peptide (80 uM final conc.), 10ul of 4X Buffer (Table A), 0.25 uL ^33P-ATP and 12 uL H2O. The reaction was allowed to run for 90 min at room temperature and was followed by spotting the entire volume on to precut P81 filter papers. The filter discs were washed 2X with 0.5% phosphoric acid and radioactivity was measured using a liquid scintillation counter. Table A
The IC50 is the concentration of test compound needed to reduce the total amount of phosphorylated substrate by 50%. The % inhibition of the test compound was determined for at least three different concentrations and the IC50 value was evaluated from the dose response curve. […] CPM(control) is in units of counts per minute and was a number expressing the amount of radiolabeled ATP (γ-^33P) incorporated into the RR-SRC peptide substrate by the enzyme after 90 minutes at room temperature in the absence of test compound as measured by liquid scintillation counting. The CPM values were corrected for the background counts produced by ATP in the absence of the enzymatic reaction. Where it was possible to determine an IC50 value, this is reported in TABLE 1 otherwise the % inhibition at 0.5 µM concentration of test compound is shown in TABLE 1.

[2] = test system: A2780DDP; test: Inhibition of Cancer Cell Growth as Measured by Cell Number (Sulforhodamine B); format: cell-based, Human; conditions: 48 hours exposure
Experimental: (§1) After 48 hours exposure to test compounds, cells were fixed with trichloroacetic acid, and stained with Sulforhodamine B. After washing with trichloroacetic acid, bound dye was solubilized in 10 mM Tris base and optical density was determined using a plate reader. Under conditions of the assay the optical density is proportional to the number of cells in the well. […] The test procedure is described in details by Philip Skehan et. al, J.Natl. Canc. […] The Her2Neu cell line is a 3T3 line that has bbeen transfected with Her2 receptor kinase.

[3] = test system: A431; test: as above; format: cell-based, Human; conditions: 48 hours exposure
Experimental: as §1

[4] = test system: A2780S; test: as above; format: cell-based, Human; conditions: 48 hours exposure
Experimental: as §1

[5] = test system: SKBR3; test: as above; format: cell-based, Human
Experimental: as §1

[6] = test system: LOX; test: as above; format: cell-based, Human; conditions: 48 hours exposure
Experimental: as §1

[7] = test system: SW620; test: as above; format: cell-based, Human
Experimental: as §1

[8] = test system: MDA435; test: as above; format: cell-based, Human; conditions: 48 hours exposure
Experimental: as §1

[9] = test system: 3T3; test: as above; format: cell-based; conditions: 48 hours exposure
Experimental: (§2) Human tumor cell lines were plated in 96-well plates (250 µl/well, 1-6 x 10^4 cells/ml) in RPMI 1640 medium, containing 5% FBS (Fetal Bovine Serum). […] After 48 hours exposure to test compounds, cells were fixed with trichloroacetic acid, and stained with Sulforhodamine B. After washing with trichloroacetic acid, bound dye was solubilized in 10 mM Tris base and optical density was determined using a plate reader. Under conditions of the assay the optical density is proportional to the number of cells in the well. IC50s (concentrations causing 50% inhibition of cell growth) were determined from the growth inhibition plots. The test procedure is described in details by Philip Skehan et. al, J.Natl. Canc. Inst., 82, 1107-1112 (1990). […] Information about some of the cell lines used in these test procedures is available from the American […]: Cell Lines and Hybridomas, 1994 Reference Guide, 8th Edition. The Her2Neu cell line is a 3T3 line that has bbeen transfected with Her2 receptor kinase.

[10] = target: Epithelial Cell Kinase (ECK) (Homo sapiens, UniProt P29317); test: Inhibition of Epithelial Cell Kinase (ECK), nonradioactive peptide phosphorylation plate assay; format: biochemical; conditions: pH 7.2; multiple entries = tested multiple times
Experimental: In this standard pharmacological test procedure, a biotinylated peptide substrate is first immobilized on neutravidin-coated microtiter plates. The test drug, the Epithelial Cell Kinase (ECK), Mg^++, sodium vanadate (a protein tyrosine phosphatase inhibitor), and an appropriate buffer to maintain pH (7.2) are then added to the immobilized substrate-containing microtiter wells. ATP is then added to initiate phosphorylation. After incubation, the assay plates are washed with a suitable buffer leaving behind phosphorylated peptide which is exposed to horse radish peroxidase (HRP)-conjugated anti-phosphotyrosine monoclonal antibody. The antibody-treated plates are washed again and the HRP activity in individual wells is quantified as a reflection of degree of substrate phosphorylation. This nonradioactive format was used to identify inhibitors of ECK tyrosine kinase activity where the IC50 is the concentration of drug that inhibits substrate phosphorylation by 50%. Multiple entries for a given compound indication it was tested multiple times.

[11] = test system: MCF7; test: Inhibition of Cancer Cell Growth as Measured by Cell Number (Sulforhodamine B); format: cell-based; conditions: Homo sapiens, 48 hours exposure
Experimental: as §2

[12] = target: Mitogen Activated Protein Kinase (Mek-Erk) (Homo sapiens, UniProt P28482+Q02750); test: Mitogen Activated Protein Kinase (MAPK) coupled MEK 1 / ERK2 assay; format: biochemical; conditions: separate entries = evaluated more than one time
Experimental: To evaluate inhibitors of the MAP (mitogen activated protein) kinase a two component coupled standard pharmacological test procedure, which measures phosphorylation of a serine/threonine residue in an appropriate sequence in the substrate in the presence and absence of a putative inhibitor, was used. Recombinant human MEK 1 (MAPKK) was first used to activate recombinant human ERK2 (MAPK) and the activated MAPK (ERK) was incubated with substrate (MBP peptide or MYC peptide) in the presence of ATP, Mg^+2 and radiolabeled ^33P ATP. The phosphorylated peptide was captured on a P 81 phosphocellulose filter (paper filter or embedded in microtiter plate) washed and counted by scintillation methods.
The peptide substrates used in the assay are MBP, peptide substrate ([…]), or synthetic Myc substrate, ([…]•5 TFA. The recombinant enzymes used were prepared as GST fusion proteins of human ERK 2 and human MEK 1. Inhibitor samples were prepared as 10X stocks in 10% DMSO and an appropriate aliquot was used to deliver either 10 ug/ml for a single point screening dose or 100, 10, 1, and 0.1 uM final concentration for a dose response curve. Final DMSO concentrations were less than or equal to 1%.
The reaction was run as follows in 50 mM Tris kinase buffer, pH 7.4 in a reaction volume of 50 ul. The appropriate volume of kinase buffer and inhibitor sample was added to the tube. Appropriate dilution of enzyme was delivered to give 2-5 ug recombinant MAPK (Erk ) per tube. The inhibitor was incubated with MAPK (Erk) for 30 min at 0 deg. C. Recombinant Mek (MAPKK) ( 0.5-2.5 ug) or fully activated Mek (0.05-0.1 units) was added to activate the Erk and incubated for 30 min at 30° C. Then substrate and gamma ^33P ATP was were added to give a final concentration of 0.5- 1 mM MBPP or 250-500 uM Myc; 0.2-0.5 uCi gamma ^33P ATP/tube; 50 µM ATP final concentration. Samples were incubated at 30°C for 30 minutes and the reaction was stopped by adding 25 µl of ice cold 10 %TCA. After samples were chilled on ice for 30 min, 20 µl of sample was transferred onto P 81 phosphocellulose filter paper or appropriate MTP with embedded P 81 filter. Filter papers or MTP were washed 2 times with a large volume of 1% acetic acid, then 2 times with water. The filters or MTP were briefly air dried before addition of scintillant and samples were counted in the appropriate scintillation counter set up for reading ^33P isotope. Samples included a positive control (activated enzyme plus substrate); a no enzyme control; a no substrate control; samples with different concentrations of putative inhibitor; and samples with reference inhibitors (other active compounds or non-specific inhibitors such as staurosporine or K252 B).
The raw data was captured as cpm. Sample replicates were averaged and corrected for background count. Mean cpm data was tabulated by group and % inhibition by a test compound was calculated as (corrected cpm control- corrected. cpm sample/control) X 100 = % inhibition. If several concentrations of inhibitor were tested, IC50 values (the concentration which gives 50% inhibition) were determined graphically from the dose response curve for % inhibition or by an appropriate computer program. The results obtained for representative compounds of this invention are listed in TABLE 3 where there may be separate entries for the same compound; this is an indication that the compound was evaluated more than one time.

[13] = recombinant His-tagged cytoplasmic domain of EGFR, RR-SRC peptide, 90 min at room temperature, read-out: IC50
[14] = Homo sapiens, 48 h, read-out: IC50
[15] = Homo sapiens, A-431, 48 h, read-out: IC50
[16] = Homo sapiens, SK-BR-3, 48 hours exposure, read-out: IC50
[17] = Homo sapiens, SW-620, 48 hours exposure, read-out: IC50
[18] = Homo sapiens, MDA435, 48 h, read-out: IC50
[19] = 0.5 µM concentration of test compound, read-out: % Inhibition @ 0.5

Epithelial Cell Kinase (ECK), sequence (P29317 24-976, species assumed): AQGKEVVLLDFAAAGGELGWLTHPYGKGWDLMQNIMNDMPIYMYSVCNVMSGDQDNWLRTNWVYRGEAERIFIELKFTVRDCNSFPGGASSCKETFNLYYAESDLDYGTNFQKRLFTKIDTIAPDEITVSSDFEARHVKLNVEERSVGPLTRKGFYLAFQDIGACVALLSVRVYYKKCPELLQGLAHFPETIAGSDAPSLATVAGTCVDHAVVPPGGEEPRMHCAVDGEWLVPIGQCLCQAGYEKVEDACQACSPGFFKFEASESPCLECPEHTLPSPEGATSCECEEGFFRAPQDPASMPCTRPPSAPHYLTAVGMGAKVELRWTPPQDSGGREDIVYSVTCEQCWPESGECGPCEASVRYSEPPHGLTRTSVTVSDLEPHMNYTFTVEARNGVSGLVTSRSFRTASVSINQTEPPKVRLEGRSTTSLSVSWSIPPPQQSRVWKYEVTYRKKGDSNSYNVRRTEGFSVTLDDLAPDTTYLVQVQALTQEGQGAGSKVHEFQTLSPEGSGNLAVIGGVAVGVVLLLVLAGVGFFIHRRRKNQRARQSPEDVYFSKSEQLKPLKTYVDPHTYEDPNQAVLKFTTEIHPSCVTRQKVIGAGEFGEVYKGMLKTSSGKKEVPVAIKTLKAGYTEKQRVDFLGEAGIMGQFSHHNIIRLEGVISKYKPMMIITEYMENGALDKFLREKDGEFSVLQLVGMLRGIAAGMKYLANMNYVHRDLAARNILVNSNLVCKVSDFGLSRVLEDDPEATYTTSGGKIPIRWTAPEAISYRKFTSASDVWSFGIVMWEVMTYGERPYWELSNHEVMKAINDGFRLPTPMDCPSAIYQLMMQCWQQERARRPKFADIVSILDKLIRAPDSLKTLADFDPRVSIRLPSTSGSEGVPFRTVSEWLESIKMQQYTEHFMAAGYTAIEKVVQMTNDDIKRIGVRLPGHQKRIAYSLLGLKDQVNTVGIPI
Mitogen Activated Protein Kinase (Mek-Erk), sequence (P28482 2-360): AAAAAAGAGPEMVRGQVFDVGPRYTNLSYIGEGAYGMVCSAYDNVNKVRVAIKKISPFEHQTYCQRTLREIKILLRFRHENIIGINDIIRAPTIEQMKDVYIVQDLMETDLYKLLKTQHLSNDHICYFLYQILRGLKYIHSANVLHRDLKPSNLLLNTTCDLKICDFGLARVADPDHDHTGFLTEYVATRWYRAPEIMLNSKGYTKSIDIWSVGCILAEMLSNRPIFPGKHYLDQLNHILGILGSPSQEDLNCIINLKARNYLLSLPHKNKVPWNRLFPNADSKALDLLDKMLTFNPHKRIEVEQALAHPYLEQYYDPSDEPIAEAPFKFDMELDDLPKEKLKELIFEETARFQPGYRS
Mitogen Activated Protein Kinase (Mek-Erk), sequence (Q02750 whole entry): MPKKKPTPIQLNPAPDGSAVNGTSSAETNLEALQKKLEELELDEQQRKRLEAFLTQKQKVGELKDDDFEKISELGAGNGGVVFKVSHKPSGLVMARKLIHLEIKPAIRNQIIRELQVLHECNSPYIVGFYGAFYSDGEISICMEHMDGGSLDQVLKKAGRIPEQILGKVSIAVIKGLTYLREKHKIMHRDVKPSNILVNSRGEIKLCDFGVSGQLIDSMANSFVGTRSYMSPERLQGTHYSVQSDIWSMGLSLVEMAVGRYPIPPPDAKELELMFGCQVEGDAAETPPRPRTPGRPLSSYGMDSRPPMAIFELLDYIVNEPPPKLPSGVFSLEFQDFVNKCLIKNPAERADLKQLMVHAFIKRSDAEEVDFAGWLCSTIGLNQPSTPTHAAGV
T1 sequence (P00533 669-1210): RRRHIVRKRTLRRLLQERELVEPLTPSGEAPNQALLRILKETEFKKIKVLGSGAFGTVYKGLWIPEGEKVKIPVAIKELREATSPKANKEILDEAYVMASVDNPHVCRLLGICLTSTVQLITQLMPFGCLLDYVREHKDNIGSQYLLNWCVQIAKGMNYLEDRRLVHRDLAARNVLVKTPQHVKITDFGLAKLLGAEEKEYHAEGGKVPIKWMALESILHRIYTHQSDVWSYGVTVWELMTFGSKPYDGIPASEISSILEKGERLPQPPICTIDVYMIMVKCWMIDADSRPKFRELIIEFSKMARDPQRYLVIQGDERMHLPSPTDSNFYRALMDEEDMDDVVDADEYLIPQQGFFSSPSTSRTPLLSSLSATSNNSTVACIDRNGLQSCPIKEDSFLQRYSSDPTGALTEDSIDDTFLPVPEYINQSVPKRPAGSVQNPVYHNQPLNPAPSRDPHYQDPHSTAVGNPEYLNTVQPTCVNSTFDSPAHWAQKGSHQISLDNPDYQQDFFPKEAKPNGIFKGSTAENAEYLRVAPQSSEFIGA

Compound | IC50 [1, 13] [nM] | IC50 [3, 15] [µg/mL] | IC50 [5, 16] [µg/mL] | IC50 [7, 17] [µg/mL] | IC50 [10] [nM] | IC50 [12] [µM] | also measured
N#Cc1cnc2cnc(NCCN3CCOCC3)cc2c1Nc1cccc(Br)c1 [Example 63, 4-(3-Bromo-phenylamino)-6-(2-morpholino-4-yl-ethylamino)-[1.7]naphthyridine-3-carbonitrile] | 1000 | 0.5 (≈ 1.1 µM) | 0.4 (≈ 0.882 µM) | 41 (≈ 90.4 µM) |  |  | IC50 [2, 14]: 0.8 µg/mL (≈ 1.76 µM); IC50 [4, 14]: 0.5 µg/mL (≈ 1.1 µM); IC50 ([6]; Homo sapiens, read-out: IC50): 57 µg/mL (≈ 126 µM); IC50 [8, 18]: 49 µg/mL (≈ 108 µM)
1-[4-(3-Bromo-phenylamino)-3-cyano-[1.7]naphthyridin-6-yl]-4-dimethylamino- pyridinium fluoride [Example 65] |  |  |  |  |  |  | IC50 [2]: 52 µg/mL; IC50 [3]: 59 µg/mL; IC50 [4]: 31 µg/mL; IC50 ([5]; 48 hours exposure): 41 µg/mL; IC50 [6]: 56 µg/mL; IC50 ([7]; 48 hours exposure): 42 µg/mL; IC50 [8]: 47 µg/mL
CN(C)CC=CC(=O)Nc1cc2c(Nc3cccc(Br)c3)c(C#N)cnc2cn1 [Example 62, 4-Dimethylamino-but-2-enoic acid, [4-(3-bromo-phenylamino)-3-cyano-[1.7]naphthyridin-6-yl]-amide] |  | 0.088 (≈ 0.195 µM) | 0.0357 (≈ 0.079 µM) | 0.356 (≈ 0.789 µM) |  |  | IC50 [9]: 0.2716 µg/mL (≈ 0.602 µM); IC50 ([9]; Mus musculus, NIH3T3, 48 h, read-out: IC50): 0.373 µg/mL (≈ 0.826 µM); IC50 [1]: 5 nM; inhibition at 0.5 µM ([1]; read-out: % Inhibition @ 0.5 (µM)): 97.4%; IC50 [8, 18]: 0.464 µg/mL (≈ 1.03 µM)
N#Cc1cnc2cnc(F)cc2c1Nc1ccc(F)c(Cl)c1 [Example 69, 4-(3-Chloro-4-fluoro-phenylamino)-6-fluoro-[1.7]naphthyridine-3-carbonitrile] |  |  |  |  | > 3100 |  | 
CNc1cc2c(Nc3cccc(Br)c3)c(C#N)cnc2cn1 [Example 64, 4-(3-Bromo-phenylamino)-6-methylamino-[1.7]naphthyridine-3-carbonitrile] | 6 | 0.31 (≈ 0.875 µM) | 1.88 (≈ 5.3 µM) | 4.62 (≈ 13 µM) |  |  | IC50 [11]: 3.87 µg/mL (≈ 10.9 µM); IC50 [3]: 0.209 µg/mL (≈ 0.59 µM); IC50 ([6]; Homo sapiens, read-out: IC50): 3.6 µg/mL (≈ 10.2 µM)
CC#CC(=O)Nc1cnc2ncc(C#N)c(Nc3cccc(Br)c3)c2c1 [Example 24, But-2-ynoic acid [5-(3-bromo-phenylamino)-6-cyano-[1.8]-naphthyridin-3-yl]-amide] | 100 |  |  |  | 30 | > 100 | 
Cc1ccc(Nc2c(C#N)cnc3ccc(OCCCN4CCOCC4)nc23)cc1O [Example 43, 4-(3-Hydroxy-4-methyl-phenylamino)-6-(3-morpholin-4-yl-propoxy)-[1.5]naphthyridine-3-carbonitrile] | 1000 |  |  |  | > 2300 | > 100 | inhibition at 0.5 µM [1, 19]: 37.1%
N#Cc1cnc2ccc(OCCCN3CCOCC3)nc2c1Nc1cccc(Br)c1 [Example 44, 4-(3-Bromo-phenylamino)-6-(3-morpholin-4-yl-propoxy)-[1.5]naphthyridine-3-carbonitrile] | 1000 |  |  |  | > 2100 | > 100 | inhibition at 0.5 µM [1, 19]: 25.4%
